Measured values as given in patent US20220265591A1, “USE OF AN OSMOLYTE IN MANUFACTURE OF A MEDICAMENT FOR TREATMENT OF OCULAR DISORDERS” (SINGAPORE HEALTH SERVICES PTELTD, priority 2019, published 2022).
Read-outs that look alike come from different tables or passages of the source.

Tests used:
[1] = biological target: T1, TGFBIp611-633 G623R peptide (Homo sapiens, UniProt Q15582, G623R); assay: ThT fluorescence assay, inhibition of amyloid fibrillation; format: biochemical; details: for inhibition at 200000 µM: 200 mM
T1 construct: The 23-amino acid long peptide (TGFBIp 611-633 c.623 G>R) from the 4th FAS1 domain; purchased Synpeptide Co Ltd, Shanghai, China; host or cells: synthetic peptide
Experimental: The 23-amino acid long peptide (TGFBIp 611-633 c.623 G>R) from the 4th FAS1 domain of TGFBIp with the substitution, G623→R ([…]) that rapidly formed amyloid fibrils was used in this study. The peptide was dissolved (0.6 mg/ml) in PBS and allowed to form amyloid fibrils in 50 ml Falcon tubes in a shaking incubator at 37° C. and 180 rpm with and without the addition of osmolytes. […] The TGFBIp^611-633 G623R peptide incubated with PBS was used as a control.
The peptide samples collected at various time points above were treated with 30 μM Thioflavin T (ThT) (Sigma-Aldrich Inc., MO, USA) in PBS buffer at pH 5.5 in a 96-well microplate (Greiner Bio-One, Frickenhausen, Germany) for ThT fluorescence assay. The microplate was excited at 445 nm and the resulting emission fluorescence at 485 nm was measured using a microplate reader (Tecan Infinite M200 Pro, CA, USA).
Percentage inhibition for each osmolyte treatment was calculated by subtracting the baseline fluorescent intensity without the peptides and compounds from the observed fluorescent intensity of each treatment well. The fluorescent intensities per osmolyte treatment were normalized against the untreated fluorescent intensity per time point and expressed as a percentage.
(§1) The TGFBIp^611-633 G623R peptides were treated with 200 mM and 320 mM of taurine for up to 72 hours, respectively, the results of which are illustrated in FIG. 11. The TGFBIp^611-633 N622K peptides were treated with 200 mM and 320 mM of taurine for up to 240 hours, respectively, the results of which are illustrated in FIG. 12. The peptides incubated with PBS were used as controls.
(§2) The peptide samples were collected at 24 h, 48 h and 72 h after treatment for TGFBIp^611-633 G623R peptides and at 120 h, 144 h and […] after treatment for the TGFBIp^611-633 N622K peptides. The samples were then treated with 30 μM ThT in PBS buffer at pH 5.5 in a 96-well microplate for ThT fluorescence assay. The microplate was excited at 445 nm and the resulting emission fluorescence at 485 nm was measured using a microplate reader.

[2] = biological target: T2, preformed amyloid fibrils from TGFBIp611-633 G623R peptide (Homo sapiens, UniProt Q15582, G623R); assay: Circular Dichroism assay (θ[218]), disaggregation of preformed amyloid fibrils; format: biochemical; details: for inhibition at 200000 µM / disruption of the β-sheet structure compared among the four osmolytes, CD: preformed fibrils; for inhibition at 200000 µM: read-out: % Inhibition (mean ± SD) n = 3, θ[218] of preformed amyloid fibrils, circular dichroism; for % Dissolution at final time point, CD: TGFBIp-G623R preformed fibrils, listed as taurine
T2 construct: The 23-amino acid long peptide (TGFBIp 611-633 c.623 G>R) from the 4th FAS1 domain; purchased Synpeptide Co Ltd, Shanghai, China; host or cells: synthetic peptide
Experimental: Circular Dichroism (CD) spectroscopy was performed to study the disaggregation of the preformed amyloid fibrils. […] The treatment solutions were studied by far UV-CD assay.
(§3) Circular Dichroism (CD) spectroscopy was performed to study the disaggregation of the preformed amyloid fibrils. The preformed amyloid fibrils were treated with taurine at a concentration of 200 mM and 320 mM in PBS buffer at pH 7.0 for 24 h, 48 h and 72 respectively. The treatment solutions were studied by far UV-CD assay.

[3] = biological target: T3, TGFBIp611-633 N622K peptide (Homo sapiens, UniProt Q15582, N622K); assay: ThT fluorescence assay, inhibition of amyloid fibrillation; format: biochemical; details: TGFBIp-N622K, final time point
T3 construct: The TGFBIp^611-633 N622K peptides were treated with 200 mM and 320 mM of taurine; purchased Synpeptide Co Ltd, Shanghai, China; host or cells: synthetic peptide
Experimental: as §1, §2

[4] = biological target: T4, preformed amyloid fibrils from TGFBIp611-633 N622K peptide (Homo sapiens, UniProt Q15582, N622K); assay: Circular Dichroism assay, disaggregation of preformed amyloid fibrils; format: biochemical; details: TGFBIp-N622K preformed fibrils, listed as taurine
T4 construct: purchased Synpeptide Co Ltd, Shanghai, China; host or cells: synthetic peptide
Experimental: The model peptides TGFBIp^611-633 G623R and TGFBIp^611-633 N622K were incubated in PBS for 24 hours for the TGFBIp^611-633 G623R peptide and 96 hours for the TGFBIp^611-633 N622K peptide, allowed to form uniform amyloid fibrils. The formation of amyloid fibrils was confirmed by (SEM) and CD spectroscopy.
as §3

[5] = biological target: T1, TGFBIp611-633 G623R peptide; assay: ThT fluorescence microscopy, inhibition of amyloid fibrillation
Experimental: The inhibitory effects of the four osmolytes on amyloid fibrillation of the TGFBIp^611-633 G623R peptide were investigated further by fluorescence microscopy after ThT staining. The peptide samples collected at various time points above were incubated ThT at a ratio of 1:1 ratio in the dark for 30 minutes to obtain solutions for fluorescence microscopy. 25 μl of the solutions were taken on to slides with coverslips and visualized under a fluorescent microscope (Axiolmager Z1, Carl Zeiss, Oberkochen, Germany).
(§4) The inhibition effect of taurine on the amyloid fibrillation was investigated further by fluorescence microscopy after ThT staining. The samples collected at the various time points above were incubated ThT at a ratio of 1:1 ratio in the dark for 30 minutes to obtain solutions for fluorescence microscopy. 25 μl of the solutions were taken on to slides with coverslips and visualized under a fluorescent microscope.

[6] = biological target: T2, preformed amyloid fibrils from TGFBIp611-633 G623R peptide; assay: ThT fluorescence microscopy, disaggregation of preformed amyloid fibrils; details: 200 mM and 320 mM
Experimental: The ability of osmolytes to disaggregate the preformed amyloid fibrils were investigated further by fluorescence microscopy after ThT staining. The peptide samples collected at the various time points above were incubated at a ratio of 1:1 ratio of thpeptide solution to ThT in the dark for 30 minutes to obtain solutions for fluorescence microscopy. 25 μl of the solutions were taken on to slides with coverslips and visualized under a fluorescent microscope. Three representative images from each time point under a given condition was used for the quantitation of fluorescence. Image J software was used to quantify the signal from the images and the values for each time point per osmolyte treatment were normalised to the untreated sample at that particular time point.
as §4, with “on the preformed amyloid fibrils” for “on the amyloid fibrillation”, “preformed amyloid fibrils was investigated” for “the amyloid fibrillation was investigated”

[7] = 24 h, read-out: % Inhibition (mean ± SD) n = 3, ThT fluorescence
[8] = 48 h, read-out: % Inhibition (mean ± SD) n = 3, ThT fluorescence
[9] = 72 h, read-out: % Inhibition (mean ± SD) n = 3, ThT fluorescence
[10] = TGFBIp-G623R, 320 mM, final time point

T4 sequence (Q15582 611-633 N622K limits assumed): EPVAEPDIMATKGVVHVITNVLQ
T1 sequence (Q15582 611-633 G623R limits assumed): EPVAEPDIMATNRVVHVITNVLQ

inhibition at 200000 µM [1, 7] [%] | inhibition at 200000 µM [1, 8] [%] | inhibition at 200000 µM [1, 9] [%] | inhibition at 200000 µM ([2]; 200 mM, 24 h) [%] | inhibition at 200000 µM ([2]; 200 mM, 48 h) [%] | inhibition at 200000 µM ([2]; 200 mM, 72 h) [%] | inhibition at 200000 µM ([1]; TGFBIp-G623R, final time point, read-out: % Inhibition at final time point, ThT) [%] | % Inhibition at final time point, ThT [1, 10] [%] | inhibition at 320000 µM [1, 10] [%] | % Dissolution at final time point, CD ([2]; 200 mM) [%] | % Dissolution at final time point, CD ([2]; 320 mM) [%] | inhibition at 200000 µM ([3]; 200 mM) [%] | inhibition at 320000 µM ([3]; 320 mM) [%] | % Dissolution at final time point, CD ([4]; 200 mM) [%] | % Dissolution at final time point, CD ([4]; 320 mM) [%] | fluorescent intensity under microscope ([5]; 200 mM and 320 mM) | fluorescent intensity under microscope, preformed fibrils [6] | SMILES | disruption of the β-sheet structure compared among the four osmolytes, CD ([2]; 200 mM) | ThT fluorescence images, fluorescent spots ([5]; 200 mM, 24 h to 72 h, versus PBS control)
16 ± 3 | 26 ± 3 | 44 | 6 ± 1 | 24 ± 11 | 36 | – | – | – | – | – | – | – | – | – | – | – | C[N+](C)(C)CC(=O)O [Betaine, betaine] | – | –
21 ± 6 | 32 ± 2 | 65 | 7 ± 7 | 48 ± 9 | ~58 | – | – | – | – | – | – | – | – | – | – | – | OC[C@H]1O[C@H](OC[C@H]2O[C@H](O[C@]3(CO)O[C@H](CO)[C@@H](O)[C@@H]3O)[C@H](O)[C@@H](O)[C@@H]2O)[C@H](O)[C@@H](O)[C@H]1O [Raffinose, raffinose] | highest disruption of the β-sheet structure | –
20 ± 3 | 32 ± 2 | 56 | 12 ± 8 | 39 ± 6 | 41 | – | – | – | – | – | – | – | – | – | – | – | CNCC(=O)O [Sarcosine, sarcosine] | – | –
20 ± 6 | 34 ± 5 | 48 | 13 ± 6 | 40 ± 12 | ~54 | 41 | 60 | 61 | 49 | 69 | 37 | 76 | 61 | 66 | reduction in fluorescent intensity | reduction in fluorescent intensity | NCCS(=O)(=O)O [Taurine, taurine] | highest disruption of the β-sheet structure | relatively smaller fluorescent spots even after 24 h
